Test systems include BT-549; CCRF-CEM; HCC 2998; HCT-15; HOP-62; HOP-92; MCF7; Malme-3M; NCI-H460; NCI/ADR-RES; OVCAR-3; OVCAR-5; PC-3; SF-539; SK-MEL-2; SK-MEL-5; SK-OV-3; SNB-75; UACC-62; UO-31.
Common to all, as to test: NCI-60 cell line screen, 48 h

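These data come from cells grown in 96-well plates and exposed to compound for 48 hours at five concentrations. GI50: concentration for 50% inhibition of growth.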 Calls of active or inactive are those of the source. Cut-off read from the data, not from the text of the source: active = GI50 up to about 1.1 µM and inactive = higher.

Take `COc1cc2c(cc1O)CCN[C@@]21CS[C@H]2c3c(OC(C)=O)c(C)c4c(c3C(COC1=O)N1C2C2c3c(cc(C)c(OC)c3O)CC([C@@H]1O)N2C)OCO4` (stereo partly specified): the GI50 in the assay on BT-549 was 0.00181 µM (active); with CCRF-CEM, < 0.0001 µM (active); in the assay on HCC 2998, 0.0001 µM (active); in the assay with HCT-15 it was 0.0001 µM; in the assay on HOP-62, < 0.0001 µM (active); in the assay on HOP-92, < 0.0001 µM (active). In addition, the GI50 in the assay with MCF7 is < 0.0001 µM (active); in the assay with Malme-3M, < 0.0001 µM (active); in the assay on NCI-H460 it was < 0.0001 µM (active); in the assay with NCI/ADR-RES it was 0.0001 µM (active); with OVCAR-3, < 0.0001 µM (active); in the assay with OVCAR-5, 0.0001 µM (active). The GI50 with PC-3 was < 0.0001 µM (active); in the assay on SF-539 it was < 0.0001 µM (active); with SK-MEL-2 it was < 0.0001 µM (active); in the assay on SK-MEL-5 it was < 0.0001 µM (active); with SK-OV-3, 0.0001 µM (active); in the assay on SNB-75, 0.00131 µM (active). The GI50 in the assay with UACC-62 was < 0.0001 µM (active).
Regarding `CC(=O)Nc1sc([N+](=O)[O-])cc1S(=O)(=O)c1ccc(Cl)cc1`, the GI50 in the assay on BT-549 is 3.64 µM (inactive); in the assay with CCRF-CEM, 8.2 µM (inactive); with HCC 2998, 2.04 µM (inactive); in the assay on HCT-15, 3.85 µM; in the assay on HOP-62, 1.39 µM (inactive); in the assay on HOP-92 it was 2 µM (inactive). Moreover, the GI50 in the assay with MCF7 was 2.86 µM (inactive); in the assay on Malme-3M, 2.48 µM (inactive); in the assay with NCI-H460, 1.65 µM (inactive); with NCI/ADR-RES, 3.22 µM (inactive); in the assay with OVCAR-3, 2.32 µM (inactive); in the assay on OVCAR-5 it was 4.7 µM (inactive). Moreover, the GI50 in the assay with PC-3 is 2.02 µM (inactive); in the assay on SF-539 it was 3.18 µM (inactive); in the assay with SK-MEL-2 it was 0.92 µM (active); in the assay on SK-MEL-5, 1.12 µM (active); in the assay on SK-OV-3 it was 2.5 µM (inactive); in the assay with SNB-75 it was 2.21 µM (inactive). In addition, the figures for the GI50 with UACC-62 and in the assay on UO-31 were 1.67 µM (inactive) and 3.09 µM (inactive), respectively.
Regarding `c1ccc(C2=NC3OC2c2ccccc23)cc1` (stereo unspecified), the GI50 in the assay with BT-549 is > 10 µM (inactive); in the assay with CCRF-CEM it was > 10 µM (inactive); in the assay with HCC 2998, > 10 µM (inactive); in the assay on HCT-15, more than 10 µM; with HOP-62, > 10 µM (inactive); in the assay with HOP-92, > 10 µM (inactive). Besides, the GI50 with MCF7 was 3.15 µM (inactive); in the assay on Malme-3M, > 10 µM (inactive); in the assay with NCI-H460, > 10 µM (inactive); with NCI/ADR-RES it was > 10 µM (inactive); in the assay with OVCAR-3, > 10 µM (inactive); in the assay on OVCAR-5, > 10 µM (inactive). Moreover, the GI50 in the assay on PC-3, in the assay on SF-539, with SK-MEL-2, in the assay with SK-MEL-5, in the assay on SK-OV-3 and with SNB-75 was > 10 µM (inactive) throughout. Moreover, the GI50 with UACC-62 is > 10 µM (inactive).
For the compound `Nc1cc(-c2ccc(Cl)cc2)nn1-c1nc2ccccc2nc1-c1ccccc1`, the GI50 was > 100 µM (inactive) with BT-549; > 100 µM (inactive) with CCRF-CEM; > 100 µM (inactive) in the assay on HCC 2998; more than 100 µM in the assay on HCT-15; 49 µM (inactive) in the assay with HOP-62; 56 µM (inactive) in the assay with HOP-92. For the same compound, the GI50 with MCF7 was > 100 µM (inactive); in the assay on Malme-3M it was 50.9 µM (inactive); in the assay with NCI-H460, > 100 µM (inactive); in the assay on NCI/ADR-RES, > 100 µM (inactive); with OVCAR-3 it was 65 µM (inactive); in the assay with OVCAR-5 it was > 100 µM (inactive). Besides, the GI50 with PC-3 is 22.2 µM (inactive); in the assay on SF-539 it was 95.9 µM (inactive); in the assay with SK-MEL-2, 59.7 µM (inactive); in the assay on SK-MEL-5 it was 92 µM (inactive); in the assay with SK-OV-3, > 100 µM (inactive); with SNB-75 it was 27.6 µM (inactive). Besides, in the assay on UACC-62, the GI50 was > 100 µM (inactive).
With `COC(=O)CC1(O)C=CC(=O)C=C1` [JACARANONE], the GI50 in the assay on BT-549 is 5.02 µM (inactive); with CCRF-CEM it was 1.99 µM (inactive); in the assay on HCC 2998, 15.3 µM (inactive); in the assay with HCT-15, 3.01 µM; in the assay on HOP-62, 6.76 µM (inactive); in the assay on HOP-92, 8.07 µM (inactive). The GI50 with MCF7 was 2.97 µM (inactive); in the assay with Malme-3M, 2.81 µM (inactive); with NCI-H460 it was 2.2 µM (inactive); in the assay on NCI/ADR-RES it was 3.63 µM (inactive); in the assay with OVCAR-3 it was 3.91 µM (inactive); in the assay with OVCAR-5, 8.99 µM (inactive). Also, the GI50 with PC-3 is 2.57 µM (inactive); in the assay with SF-539, 3.53 µM (inactive); in the assay with SK-MEL-2, 4.63 µM (inactive); in the assay on SK-MEL-5, 3.29 µM (inactive); with SK-OV-3 it was 14.1 µM (inactive); in the assay with SNB-75 it was 5.43 µM (inactive). The GI50 is 2.13 µM (inactive) in the assay on UACC-62 and 2.96 µM (inactive) with UO-31.
For `NNC(=S)N/N=C(/C(=O)Nc1ccc(Cl)c(Cl)c1)C(C1OC(=O)c2ccccc21)[N+](=O)[O-]` (stereo unspecified), the GI50 is > 100 µM (inactive) with BT-549; 52.7 µM (inactive) in the assay with CCRF-CEM; > 100 µM (inactive) in the assay on HCC 2998; more than 100 µM with HCT-15; > 100 µM (inactive) with HOP-62; 86.9 µM (inactive) in the assay with HOP-92. The GI50 in the assay on MCF7, in the assay on Malme-3M, with NCI-H460, in the assay on NCI/ADR-RES, in the assay on OVCAR-3 and in the assay with OVCAR-5 was > 100 µM (inactive) each time. The GI50 with PC-3, with SF-539, in the assay on SK-MEL-2, with SK-MEL-5, with SK-OV-3 and with SNB-75 was > 100 µM (inactive) throughout. In addition, the GI50 in the assay with UACC-62 and with UO-31 was > 100 µM (inactive) each time.
Regarding `Cc1c2ccncc2c(C)c2c1sc1ccccc12`, the GI50 in the assay on BT-549 is 16.7 µM (inactive); in the assay with CCRF-CEM it was 3.31 µM (inactive); in the assay on HCC 2998 it was 11.8 µM (inactive); in the assay with HCT-15, 7.24 µM; in the assay with HOP-62 it was 7.38 µM (inactive); in the assay with HOP-92, 12 µM (inactive). Further, the GI50 is 1.84 µM (inactive) in the assay with MCF7; 10.8 µM (inactive) with Malme-3M; 2.31 µM (inactive) in the assay with NCI-H460; 7.08 µM (inactive) with NCI/ADR-RES; 14.6 µM (inactive) with OVCAR-3; 21 µM (inactive) in the assay with OVCAR-5. The GI50 in the assay with PC-3 was 11.1 µM (inactive); in the assay on SF-539 it was 6.73 µM (inactive); in the assay with SK-MEL-2, 21 µM (inactive); in the assay on SK-MEL-5, 7.87 µM (inactive); with SK-OV-3, 13.1 µM (inactive); in the assay on SNB-75, 14.6 µM (inactive). Also, the GI50 with UACC-62 is 5.24 µM (inactive).
Turning to `CCCCCCCCCCCCCCCC(=O)OCC1CCCN2CCCCC12` (stereo unspecified), the GI50 in the assay on BT-549 is > 100 µM (inactive); in the assay on CCRF-CEM it was > 100 µM (inactive); in the assay on HCC 2998 it was > 100 µM (inactive); in the assay on HCT-15, more than 100 µM; in the assay on HOP-62, > 100 µM (inactive); with HOP-92 it was > 100 µM (inactive). Also, the GI50 in the assay with MCF7, in the assay with Malme-3M, in the assay on NCI-H460, with NCI/ADR-RES, in the assay with OVCAR-3 and in the assay on OVCAR-5 was > 100 µM (inactive) each time. For the same compound, the GI50 in the assay on PC-3, with SF-539, with SK-MEL-2, in the assay on SK-MEL-5, in the assay with SK-OV-3 and in the assay with SNB-75 was > 100 µM (inactive) in each case. The GI50 with UACC-62 and in the assay with UO-31 was > 100 µM (inactive) each time.
`O/N=N/c1ccc(-c2ccccc2)cn1`: the GI50 in the assay on BT-549 is 30.7 µM (inactive); with CCRF-CEM, 2.2 µM (inactive); with HCC 2998, 16.9 µM (inactive); in the assay on HCT-15, 19.6 µM; with HOP-62, 3.45 µM (inactive); in the assay on HOP-92 it was 1.32 µM (inactive). In addition, the GI50 in the assay with MCF7 is 1.44 µM (inactive); in the assay with Malme-3M, 11.5 µM (inactive); with NCI-H460, 6.25 µM (inactive); with NCI/ADR-RES it was 8.77 µM (inactive); with OVCAR-3 it was 20.2 µM (inactive); in the assay on OVCAR-5, 20.3 µM (inactive). The GI50 is 7.4 µM (inactive) in the assay on PC-3; 17.4 µM (inactive) with SF-539; 31.6 µM (inactive) in the assay with SK-MEL-2; 11.9 µM (inactive) in the assay on SK-MEL-5; 20.3 µM (inactive) in the assay with SK-OV-3; 6.46 µM (inactive) in the assay with SNB-75. Further, the GI50 was 7.64 µM (inactive) in the assay with UACC-62 and 13.2 µM (inactive) in the assay with UO-31.
On to `CCOC(=O)/C=C(/C(=O)OCC)n1cnc2c(=O)[nH]c(NC(C)=O)nc21`, for which the GI50 in the assay on BT-549 was > 100 µM (inactive); with CCRF-CEM it was > 100 µM (inactive); in the assay on HCC 2998, > 100 µM (inactive); with HCT-15, more than 100 µM; in the assay with HOP-62, > 100 µM (inactive); with HOP-92, > 100 µM (inactive). Also, the GI50 in the assay on MCF7, with Malme-3M, in the assay on NCI-H460, in the assay with NCI/ADR-RES, in the assay on OVCAR-3 and in the assay with OVCAR-5 was > 100 µM (inactive) in each case. In addition, the GI50 in the assay with PC-3, with SF-539, with SK-MEL-2, in the assay with SK-MEL-5, in the assay with SK-OV-3 and with SNB-75 was > 100 µM (inactive) each time. For the same compound, the GI50 with UACC-62 and with UO-31 was > 100 µM (inactive) throughout.

Values taken from ChEMBL document CHEMBL1201862, “PubChem BioAssay data set” (2004).
